# What was measured:
# [1] = The drug is tested on Clostridium symbiosum strain: ATCC14940 for biotransformation. The drug concentrations were measured before and after a 12-h incubation by liquid-chromatography-coupled mass spectrometry (LC–MS); conditions: 2 µM
# [2] = The drug is tested on Alistipes indistinctus strain: DSM22520 for biotransformation. The drug concentrations were measured before and after a 12-h incubation by liquid-chromatography-coupled mass spectrometry (LC–MS); conditions: 2 µM
# [3] = The drug is tested on Ruminococcus lactaris strain: ATCC29176 for biotransformation. The drug concentrations were measured before and after a 12-h incubation by liquid-chromatography-coupled mass spectrometry (LC–MS); conditions: 2 µM
# [4] = The drug is tested on Collinsella intestinalis strain: DSM13280 for biotransformation. The drug concentrations were measured before and after a 12-h incubation by liquid-chromatography-coupled mass spectrometry (LC–MS); conditions: 2 µM
# [5] = The drug is tested on Blautia luti strain: DSM14534 for biotransformation. The drug concentrations were measured before and after a 12-h incubation by liquid-chromatography-coupled mass spectrometry (LC–MS); type: ADME; set-up: dose 2 uM, timepoint 0 vs 12 hours; conditions: 2 µM
# [6] = The drug is tested on Bacteroides fragilis strain: HMW615 for biotransformation. The drug concentrations were measured before and after a 12-h incubation by liquid-chromatography-coupled mass spectrometry (LC–MS); conditions: 2 µM
# [7] = bacteroides fragilis, 12 h, 2 µM
# Description: The drug is tested on Bacteroides fragilis strain: NCTC 9343 for biotransformation. The drug concentrations were measured before and after a 12-h incubation by liquid-chromatography-coupled mass spectrometry (LC–MS)
# [8] = The drug is tested on Clostridium ramosum strain: DSM1402 for biotransformation. The drug concentrations were measured before and after a 12-h incubation by liquid-chromatography-coupled mass spectrometry (LC–MS); conditions: thomasclavelia ramosa, 2 µM
# [9] = The drug is tested on Bacteroides coprophilus strain: DSM18228 for biotransformation. The drug concentrations were measured before and after a 12-h incubation by liquid-chromatography-coupled mass spectrometry (LC–MS); conditions: 2 µM
# [10] = The drug is tested on Ruminococcus torques strain: ATCC27756 for biotransformation. The drug concentrations were measured before and after a 12-h incubation by liquid-chromatography-coupled mass spectrometry (LC–MS); type: ADME; set-up: dose 2 uM, timepoint 0 vs 12 hours; conditions: 2 µM
# [11] = anaerostipes sp., 12 h, 2 µM
# Description: The drug is tested on Anaerostipes sp. strain: fecal isolate for biotransformation. The drug concentrations were measured before and after a 12-h incubation by liquid-chromatography-coupled mass spectrometry (LC–MS)
# [12] = The drug is tested on Bacteroides fragilis strain: HMW610 for biotransformation. The drug concentrations were measured before and after a 12-h incubation by liquid-chromatography-coupled mass spectrometry (LC–MS); conditions: 2 µM
# [13] = The drug is tested on Parabacteroides merdae strain: ATCC43184 for biotransformation. The drug concentrations were measured before and after a 12-h incubation by liquid-chromatography-coupled mass spectrometry (LC–MS); conditions: 2 µM
# [14] = bacteroides fragilis, 12 h, 2 µM; remark: listed apart in the source
# Description: The drug is tested on Bacteroides fragilis strain: 3397 (T10) for biotransformation. The drug concentrations were measured before and after a 12-h incubation by liquid-chromatography-coupled mass spectrometry (LC–MS)
# [15] = The drug is tested on Clostridium sporogenes strain: ATCC15579 for biotransformation. The drug concentrations were measured before and after a 12-h incubation by liquid-chromatography-coupled mass spectrometry (LC–MS); conditions: 2 µM
# [16] = The drug is tested on Enterobacter cancerogenus strain: ATCC35316 for biotransformation. The drug concentrations were measured before and after a 12-h incubation by liquid-chromatography-coupled mass spectrometry (LC–MS); conditions: 2 µM
# [17] = The drug is tested on Bacteroides fragilis strain: ATCC43859 for biotransformation. The drug concentrations were measured before and after a 12-h incubation by liquid-chromatography-coupled mass spectrometry (LC–MS); conditions: 2 µM
# [18] = The drug is tested on Bacteroides dorei strain: DSM17855 for biotransformation. The drug concentrations were measured before and after a 12-h incubation by liquid-chromatography-coupled mass spectrometry (LC–MS); conditions: phocaeicola dorei, 2 µM
Compound,Bacterial Biotransformation [1],Bacterial Biotransformation [2],Bacterial Biotransformation [3],Bacterial Biotransformation [4],Bacterial Biotransformation [5],Bacterial Biotransformation [6],Bacterial Biotransformation [7],Bacterial Biotransformation [8],Bacterial Biotransformation [9],Bacterial Biotransformation [10],Bacterial Biotransformation [11],Bacterial Biotransformation [12],Bacterial Biotransformation [13],Bacterial Biotransformation [14],Bacterial Biotransformation [15],Bacterial Biotransformation [16],Bacterial Biotransformation [17],Bacterial Biotransformation [18]
CN1CC(=O)N2[C@H](c3ccc4c(c3)OCO4)c3[nH]c4ccccc4c3C[C@@H]2C1=O,Compound NOT metabolized,Compound NOT metabolized,Compound NOT metabolized,Compound NOT metabolized,Compound NOT metabolized,Compound metabolized,Compound NOT metabolized,Compound NOT metabolized,Compound NOT metabolized,Compound NOT metabolized,Compound NOT metabolized,Compound metabolized,Compound NOT metabolized,Compound NOT metabolized,–,–,–,–
CCc1cccc2c3c([nH]c12)C(CC)(CC(=O)O)OCC3 (stereo not given) [ETODOLAC],Compound NOT metabolized,–,Compound NOT metabolized,Compound NOT metabolized,Compound NOT metabolized,Compound metabolized,–,–,Compound NOT metabolized,Compound NOT metabolized,Compound NOT metabolized,–,Compound NOT metabolized,Compound NOT metabolized,Compound NOT metabolized,Compound NOT metabolized,Compound metabolized,–
N=C(N)NC(=O)Cc1c(Cl)cccc1Cl [GUANFACINE],Compound NOT metabolized,–,Compound NOT metabolized,Compound NOT metabolized,Compound NOT metabolized,Compound NOT metabolized,Compound NOT metabolized,Compound NOT metabolized,–,Compound NOT metabolized,Compound NOT metabolized,Compound NOT metabolized,Compound NOT metabolized,Compound NOT metabolized,Compound NOT metabolized,Compound NOT metabolized,Compound NOT metabolized,Compound NOT metabolized
O=C([O-])C[C@H](O)C[C@H](O)/C=C/c1c(C2CC2)nc2ccccc2c1-c1ccc(F)cc1.O=C([O-])C[C@H](O)C[C@H](O)/C=C/c1c(C2CC2)nc2ccccc2c1-c1ccc(F)cc1.[Ca+2] [PITAVASTATIN CALCIUM],Compound NOT metabolized,Compound NOT metabolized,Compound NOT metabolized,Compound NOT metabolized,Compound NOT metabolized,Compound NOT metabolized,Compound NOT metabolized,Compound NOT metabolized,Compound NOT metabolized,Compound NOT metabolized,Compound NOT metabolized,Compound NOT metabolized,Compound NOT metabolized,Compound NOT metabolized,–,Compound NOT metabolized,Compound NOT metabolized,Compound NOT metabolized
O=C(O)CCC(=O)O.O=C(O[C@H]1CN2CCC1CC2)N1CCc2ccccc2[C@@H]1c1ccccc1 [SOLIFENACIN SUCCINATE],Compound NOT metabolized,–,Compound NOT metabolized,Compound NOT metabolized,Compound NOT metabolized,Compound NOT metabolized,Compound NOT metabolized,Compound NOT metabolized,Compound NOT metabolized,Compound NOT metabolized,Compound NOT metabolized,Compound NOT metabolized,Compound NOT metabolized,Compound NOT metabolized,Compound NOT metabolized,Compound NOT metabolized,Compound NOT metabolized,–
O=C(CCCN1CCC2(CC1)C(=O)NCN2c1ccccc1)c1ccc(F)cc1 [SPIPERONE],Compound NOT metabolized,Compound NOT metabolized,Compound NOT metabolized,Compound NOT metabolized,Compound NOT metabolized,Compound NOT metabolized,Compound NOT metabolized,Compound NOT metabolized,Compound NOT metabolized,Compound NOT metabolized,Compound NOT metabolized,Compound NOT metabolized,Compound NOT metabolized,Compound NOT metabolized,–,Compound NOT metabolized,Compound NOT metabolized,Compound NOT metabolized
CCN1CCCC1CNC(=O)c1cc(S(N)(=O)=O)ccc1OC (stereo not given) [SULPIRIDE],Compound NOT metabolized,Compound NOT metabolized,Compound NOT metabolized,Compound NOT metabolized,Compound NOT metabolized,–,Compound NOT metabolized,Compound NOT metabolized,–,Compound NOT metabolized,Compound NOT metabolized,Compound metabolized,Compound NOT metabolized,–,Compound NOT metabolized,Compound NOT metabolized,–,Compound NOT metabolized
CNS(=O)(=O)Cc1ccc2[nH]cc(CCN(C)C)c2c1.O=C(O)CCC(=O)O [SUMATRIPTAN SUCCINATE],Compound NOT metabolized,Compound NOT metabolized,Compound NOT metabolized,Compound NOT metabolized,Compound NOT metabolized,–,Compound NOT metabolized,Compound NOT metabolized,–,Compound NOT metabolized,Compound NOT metabolized,Compound metabolized,Compound NOT metabolized,–,Compound NOT metabolized,Compound metabolized,–,–
CC(CN(C)C)CN1c2ccccc2CCc2ccccc21.O=C(O)/C=C\C(=O)O (stereo not given) [TRIMIPRAMINE MALEATE],Compound NOT metabolized,Compound NOT metabolized,Compound NOT metabolized,Compound NOT metabolized,Compound NOT metabolized,Compound NOT metabolized,–,Compound NOT metabolized,–,Compound NOT metabolized,Compound NOT metabolized,Compound NOT metabolized,Compound NOT metabolized,Compound NOT metabolized,Compound NOT metabolized,Compound NOT metabolized,Compound NOT metabolized,Compound NOT metabolized
CCN(C(C)=O)c1cccc(-c2ccnc3c(C#N)cnn23)c1 [ZALEPLON],Compound NOT metabolized,Compound NOT metabolized,Compound NOT metabolized,–,Compound NOT metabolized,Compound metabolized,Compound metabolized,Compound NOT metabolized,Compound NOT metabolized,Compound NOT metabolized,–,Compound metabolized,–,Compound NOT metabolized,Compound NOT metabolized,–,Compound metabolized,Compound metabolized
